Laboratory results published in patent US6747024B1, “Heterocyclic compounds and their use as medicines” (Societe de Conseils de Recherches et d'Applications …, priority 1999, dated 2004).

| melting point [°C] | SMILES |
| --- | --- |
| 199 to 201 | CC(=O)O[C@H]1OCC[C@@H]1NC(=O)[C@H](CC(C)C)NC(=O)c1ccc2c(c1)Nc1ccccc1S2 [Example 18.1, (2R,3S)-3-({(2S)-4-methyl-2-[(10H-phenothiazin-2-ylcarbonyl)amino]-pentanoyl}amino)tetrahydro-2-furanyl acetate] |
| 205 to 208 | CC(=O)O[C@@H]1OCC[C@@H]1NC(=O)[C@H](CC(C)C)NC(=O)c1ccc2c(c1)Nc1ccccc1S2 [Example 18.2, (2S,3S)-3-({(2S)-4-methyl-2-[(10H-phenothiazin-2-ylcarbonyl)amino]-pentanoyl}amino)tetrahydro-2-furanyl acetate] |
